Source: PubChem BioAssay AID248 (DTP/NCI, 2004)
“And” between values parts separate entries of the source, which are not always exact repeats. Equal entries are not always repeated. Inconclusive results and toxic doses are left out. Rule as the data show it: active = T/C of 150% or more; inactive = T/C below 125%.

System: L1210 leukemia ip in BDF1 mice, survival T/C
Test: NCI In Vivo Anticancer Drug Screen. Data for tumor model L1210 Leukemia (intraperitoneal) in B6D2F1 (BDF1) mice
Conditions: endpoint: mean survival time, higher = longer survival
Procedure, shortened: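 Antitumor effect is assessed in tumor-bearing animals. Survival in the compound arm is compared with a vehicle-dosed control arm and expressed as their quotient.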

[1] = dose: 100.0 mg/kg/injection, schedule: Q04DX003 (ip), vehicle: saline with Tween-80
[2] = dose: 200.0 mg/kg/injection, schedule: Q01DX009 (ip), vehicle: saline
[3] = dose: 200.0 mg/kg/injection, schedule: Q04DX003 (ip), vehicle: saline with Tween-80
[4] = dose: 400.0 mg/kg/injection, schedule: Q04DX003 (ip), vehicle: saline with Tween-80
[5] = dose: 12.5 mg/kg/injection, schedule: Q01DX009 (ip), vehicle: Klucel (hydroxypropylcellulose) (HPC)
[6] = dose: 100.0 mg/kg/injection, schedule: Q04DX003 (ip), vehicle: Klucel (hydroxypropylcellulose) (HPC)
[7] = dose: 200.0 mg/kg/injection, schedule: Q04DX003 (ip), vehicle: Klucel (hydroxypropylcellulose) (HPC)

Measured: T/C

N\C([S-])=N/N=C\C(=N/N=C(\N)[S-])C(O)C(O)C(O)CO.[Pt+2] (centres undefined)
inactive: dose: 50.0 mg/kg/injection, schedule: Q01DX009 (ip), vehicle: saline 91 % of control | [1] 92 % of control | [2] 100 % of control | [3] 89 % of control | [4] 96 % of control

O=C1c2ccccc2C(=O)N1c1cc(OCc2ccccc2)cc(OCc2ccccc2)c1
inactive: dose: 100.0 mg/kg/injection, schedule: Q01DX009 (ip), vehicle: water 94 % of control | dose: 100.0 mg/kg/injection, schedule: Q04DX003 (ip), vehicle: water 104 % of control | dose: 200.0 mg/kg/injection, schedule: Q01DX009 (ip), vehicle: water 91 % of control | dose: 200.0 mg/kg/injection, schedule: Q04DX003 (ip), vehicle: water 102 % of control | dose: 400.0 mg/kg/injection, schedule: Q01DX009 (ip), vehicle: water 91 % of control | dose: 400.0 mg/kg/injection, schedule: Q04DX003 (ip), vehicle: water 102 % of control

CC(Cc1ccccc1)N1C(=O)C=CC1=O (centres undefined)
inactive: dose: 3.12 mg/kg/injection, schedule: Q01DX009 (ip), vehicle: Klucel (hydroxypropylcellulose) (HPC) 92 % of control | dose: 6.25 mg/kg/injection, schedule: Q01DX009 (ip), vehicle: Klucel (hydroxypropylcellulose) (HPC) 101 % of control | [5] 93 % of control and 90 % of control

C/C(C(=O)O)=C(/Cl)c1c(C)cc(C)c(Br)c1C
inactive: dose: 100.0 mg/kg/injection, schedule: Q01DX001 (ip), vehicle: gum acacia 89 % of control | dose: 100.0 mg/kg/injection, schedule: Q01DX009 (ip), vehicle: gum acacia 108 % of control | dose: 200.0 mg/kg/injection, schedule: Q01DX001 (ip), vehicle: gum acacia 93 % of control | dose: 200.0 mg/kg/injection, schedule: Q01DX009 (ip), vehicle: gum acacia 105 % of control | dose: 400.0 mg/kg/injection, schedule: Q01DX001 (ip), vehicle: gum acacia 91 % of control

COc1ccc(C(=Nc2ccccc2)C(=Nc2ccccc2)c2ccc(OC)cc2)cc1
inactive: [1] 88 % of control | [3] 89 % of control | [4] 91 % of control

CN(C)C(N)=Nc1ccc(Cl)cc1
inactive: [5] 97 % of control | dose: 25.0 mg/kg/injection, schedule: Q01DX009 (ip), vehicle: Klucel (hydroxypropylcellulose) (HPC) 98 % of control | dose: 50.0 mg/kg/injection, schedule: Q01DX009 (ip), vehicle: Klucel (hydroxypropylcellulose) (HPC) 89 % of control

CCC[CH2][Sn]([I])([CH2]I)[CH2]CCC
inactive: dose: 6.25 mg/kg/injection, schedule: Q04DX002 (ip), vehicle: saline with Tween-80 112 % of control | dose: 12.5 mg/kg/injection, schedule: Q04DX002 (ip), vehicle: saline with Tween-80 112 % of control

O=C(O)c1ccc([N+](=O)[O-])cc1C(=O)O
inactive: dose: 87.5 mg/kg/injection, schedule: Q01DX001 (ip), vehicle: saline 104 % of control | dose: 100.0 mg/kg/injection, schedule: Q01DX009 (ip), vehicle: saline 100 % of control | [6] 96 % of control | dose: 175.0 mg/kg/injection, schedule: Q01DX001 (ip), vehicle: saline 100 % of control | [2] 93 % of control | [7] 87 % of control | dose: 350.0 mg/kg/injection, schedule: Q01DX001 (ip), vehicle: saline 108 % of control

CC(C)(C)N1CCCC1
inactive: dose: 25.0 mg/kg/injection, schedule: Q01DX009 (ip), vehicle: saline with Tween-80 96 % of control | dose: 50.0 mg/kg/injection, schedule: Q01DX009 (ip), vehicle: saline with Tween-80 91 % of control | dose: 100.0 mg/kg/injection, schedule: Q01DX009 (ip), vehicle: saline with Tween-80 88 % of control

O=C(NCCN1CCOCC1)c1ccc(C(=O)NCCN2CCOCC2)cc1
inactive: dose: 100.0 mg/kg/injection, schedule: Q01DX001 (ip), vehicle: saline 103 % of control | dose: 200.0 mg/kg/injection, schedule: Q01DX001 (ip), vehicle: saline 105 % of control | dose: 400.0 mg/kg/injection, schedule: Q01DX001 (ip), vehicle: saline 100 % of control

C=CCc1cnc(SC)[nH]c1=O
inactive: [6] 102 % of control | [7] 97 % of control | dose: 400.0 mg/kg/injection, schedule: Q04DX003 (ip), vehicle: Klucel (hydroxypropylcellulose) (HPC) 93 % of control

CCCC[As](=O)(O)CC
inactive: dose: 25.0 mg/kg/injection, schedule: Q01DX009 (ip), vehicle: saline 104 % of control
